Data taken from patent publication US20040121307A1, “Early detection of cellular differentiation using optophoresis” (Genoptix, Inc, priority 2002, published 2004).

Legend:
K562 Cells [1] = test: Escape velocities of different cell types (1064 system, CYTOP coated coverslips); type: cell-based; settings: 26 Hr. Taxol Treatment
Excerpt: Certain of the data reported herein were generated with the following setup. Optical gradient fields were generated using a Michelson interferometer and either a 150 mW, 812 nm laser (812 system) or a 2.5 W, 1064 nm laser (1064 system). The 812 system used a 100× (1.25 NA) oil immersion lens to focus the fringe pattern and to visualize the sample. The 1064 system used a 20× objective to focus the fringes and a 60× objective to visualize the sample. In general the sample cell was a coated microscope slide and/or coverslip that was sealed with Vaseline. Coverslip spacers controlled the height of the cell at approximately 150 micrometers.
Escape velocities were measured using a gradient field generated by the 1064 system on CYTOP coated coverslips.

K562 Cells [2] = test: Experiment 7: time and concentration dependence of paciltaxel, escape velocity; type: cell-based; set-up: escape velocity, Ave.: unit not given here
Procedure: In this experiment, the effect of time and concentration of paciltaxel was tested using K562 cells. Paciltaxel is a chemotherapeutic agent whose mechanism of action is the […] and the subsequent disruption of the cytoskeleton in cells. The timepoints tested were 4 hours, 23 hours, 30 hours and 47 hours. The concentrations of paciltaxel used in the experiment were 10 nM, 1 nM, 100 pM, and 10 pM. At each timepoint, 300 μl of cells were removed from each sample and centrifuged for 5 minutes at 5,000 rpm. The cells were then resuspended in PBS/1% BSA and trypan blue.

U937 cells [3] = test: Experiment 4: effect of camptothecin, escape velocity; type: cell-based; settings: for escape velocity, Average: 0.04 μg/ml camptothecin
Procedure: The objective of this experiment is to test the effects of camptothecin on the escape velocities of U937 cells. Camptothecin inhibits DNA topoisomerase I and induces apoptosis. A control and three concentrations of camptothecin were tested: […]. After adding the camptothecin, the flasks are incubated at 37° C. 5% CO2.
At the timepoints of 4 hours and 6 hours, 200 μl of cells are spun for 5 minutes at 5000 rpm. The cells are then resuspended in […] PBS/1% BSA and […] trypan blue.
Optophoretic techniques have been investigated for their potential to detect the early onset of apoptosis in mammalian cells. U.S. patent application Ser. No. 10,240,611, for example, discloses multiple experiments in which U937 cells were treated with camptothecin and subsequently monitored Optophoretically using measured escape velocities. In one experiment, the escape velocity of the camptothecin-treated cells were measured at 4 and 6 hours after treatment. Noticeable changes in escape velocity were seen as early as 4 hours after treatment (see, e.g., FIG. 34). In that experiment, U937 cells were treated with 4 μg/ml of camptothecin and resuspended in PBS/1% BSA. Escape velocity measurements were taken after 4 and 6 hours. Table 18, reproduced below, includes the results of the escape velocity measurements for the test cells as well as the controls.

CEM/C2 cell line = settings: cell lines obtained from ATCC; cited from earlier work
[4] = test system: activated caspases in U937 cells; test: Homogeneous Caspases Assay, Fluorimetric; type: cell-based; settings: 4 μg/ml camptothecin, 300 cells/well
Excerpt: Another assay that provides for even earlier detection of apoptotic events are assays that detect caspase activation. For example, the Homogeneous Caspases Assay, Fluorimetric (available from Roche, catalog no. 3005372), is able to detect caspase activation. […] The kit uses the substrate DEVD-Rhodamine 110 which is cleaved by activated caspases. When DEVD-Rhodamine 110 is cleaved, the released Rhodamine-110 molecule fluoresces upon excitation. By comparing the fluorescence from an apoptotic sample and an uninduced control, the increase in caspase activity can be quantified. While caspase assays do have the ability to detect relatively early apoptotic events, the assays require fluorometric enzyme substrates. Yet another experiment using U937 cells treated with 4 μg/ml camptothecin was carried out. In this experiment, the cells were subject to analysis using a caspase assay (Homogeneous Caspases Assay, Fluorimetric-available from Roche, catalog no. 3005372). The caspase assay is a fluorometric assay carried out in 96-well plates. […] Upon cleavage of the substrate by activated caspases, fluorescence of the released Rhodamine 110 is measured. […] FIG. 102 illustrates a graph of the relative fluorescence units (RFU) as a function of incubation times (hours) for the control (blank) as well as the camptothecin-treated cells.

U937 cells [5] = test: ApoAlert Annexin V assay (FACS); type: cell-based; settings: 4 μg/ml camptothecin
Procedure: Still other assays provide earlier indications of the onset of apoptosis. For example, commercially available assays, such as the ApoAlert Annexin V assay (available from CLONETECH) are able to detect changes in the plasma membrane by using a FITC conjugate of annexin V. The ApoAlert Annexin V assay is based on the observation that within about 6-10 hours after the onset of apoptosis, most cell types translocate phosphatidylserine (PS) from the inner face of the plasma membrane to the exterior of the cell surface. Once the PS is exposed on the exterior of the cell surface, the presence of PS can be detected using a FITC conjugate of annexin V. Fluorescence microscopy and flow cytometry can then be used to detect the binding of the FITC conjugate to the […]. While this assay does provide for relatively early detection of apoptotic events, the assay requires labeled annexin V markers as well as subsequent analysis by fluorescent microscopy or flow cytometry.
Another experiment using U937 cells treated with 4 μg/ml camptothecin was also carried out. In this experiment, however, the cells were subject to analysis using an annexin V assay. The assay was performed using the ApoAlert Annexin V Apoptosis Kit (available from Clonetech, catalog no. K2025-1). […] Significant annexin V binding is seen later in the 3 and 4 hour time points. […]

CC(=O)O[C@H]1C(=O)[C@@]2(C)[C@H]([C@H](OC(=O)c3ccccc3)[C@]3(O)C[C@H](OC(=O)[C@H](O)[C@@H](NC(=O)c4ccccc4)c4ccccc4)C(C)=C1C3(C)C)[C@]1(OC(C)=O)CO[C@@H]1C[C@@H]2O [paciltaxel]
Escape Velocity (K562 Cells [1]): 8.2 +/− 0.4 um/sec. | escape velocity, Ave. (K562 Cells [2]; 10 pM paciltaxel, 4 Hours): 15.7 | escape velocity, Ave. (K562 Cells [2]; 10 pM paciltaxel, 23 Hours): 15.7 | escape velocity, Ave. (K562 Cells [2]; 10 pM paciltaxel, 30 Hours): 16.0 | escape velocity, Ave. (K562 Cells [2]; 10 pM paciltaxel, 47 Hours): 16.2 | optophoretic effect on cells (K562 Cells [2]; 10 pM to 10 nM, 4 to 47 hours): both a time and dose dependent optophoretic effect | escape velocity, Ave. (K562 Cells [2]; 100 pM paciltaxel, 4 Hours): 15.9 | escape velocity, Ave. (K562 Cells [2]; 100 pM paciltaxel, 23 Hours): 17.1 | escape velocity, Ave. (K562 Cells [2]; 100 pM paciltaxel, 30 Hours): 17.6 | escape velocity, Ave. (K562 Cells [2]; 100 pM paciltaxel, 47 Hours): 17.0 | escape velocity, Ave. (K562 Cells [2]; 1 nM paciltaxel, 4 Hours): 15.6 | escape velocity, Ave. (K562 Cells [2]; 1 nM paciltaxel, 23 Hours): 16.9 | escape velocity, Ave. (K562 Cells [2]; 1 nM paciltaxel, 30 Hours): 16.9 | escape velocity, Ave. (K562 Cells [2]; 1 nM paciltaxel, 47 Hours): 16.7 | escape velocity, Ave. (K562 Cells [2]; 10 nM paciltaxel, 4 Hours): 15.3 | escape velocity, Ave. (K562 Cells [2]; 10 nM paciltaxel, 23 Hours): 16.9 | escape velocity, Ave. (K562 Cells [2]; 10 nM paciltaxel, 30 Hours): 17.4 | escape velocity, Ave. (K562 Cells [2]; 10 nM paciltaxel, 47 Hours): 17.1

CC[C@@]1(O)C(=O)OCc2c1cc1n(c2=O)Cc2cc3ccccc3nc2-1 [camptothecin]
shift in escape velocity over time (U937 cells [3]; 40 ng/ml camptothecin, 4 and 6 hours (FIG. 34)): shift to lower escape velocities over time | escape velocity, Average (U937 cells [3]; 4 hours): 10.16 μm/sec | escape velocity, Average (U937 cells [3]; 6 hours): 9.52 μm/sec | fold less sensitive than parental CCRF-CEM (CEM/C2 cell line): 970 fold | time after administration at which caspase activity is detected [4]: > 4 h | time at which the annexin V assay begins to detect the onset of apoptosis (U937 cells [5]): 2 h
